Literature values as cited in paper PMC3352981 (Bioorganic & medicinal chemistry letters, 2012).

How the values were obtained:
BoNT/A [1] = conditions: mouse
BoNT/A [2] = tested on: BoNT/A

SMILES | in vivo activity (BoNT/A [1]) | potency (in words) (BoNT/A [2])
O=C(/C=C/c1ccc(Cl)cc1Cl)NO [Compound 1, 2,4-dichlorocinnamyl hydroxamic acid] | marginal in vivo activity | 
CC(C)(C)c1ccc(C=CC(=O)NO)cc1 [4-tert-butylcinnamyl hydroxamate] |  | dramatic loss of potency
